Results reported in patent publication US5122515A, “Nutrient composition containing dipeptides and method for administering the same” (priority 1990, dated 1992).

What was measured:
[1] = In vitro clearance of tyrosyl-arginine in human whole blood
Procedure: Supplementation of an intravenous nutrition solution with the dipeptide tyrosyl-arginine facilitates the infusion of the poorly soluble amino acid tyrosine. We have initiated the first investigations into the metabolism of exogenous tyrosyl-arginine (TryArg). In vitro clearance of tyrosyl-arginine, and the constituent amino acids arginine and tyrosine was assessed in blood from two healthy normal volunteers on five occasions. Whole blood was incubated with tyrosyl-arginine (initially 547 nmol/ml) at 37°°C. for 40 minutes. Throughout this period samples were taken to determine concentration of the dipeptide and individual amino acids.

[2] = In vivo clearance of tyrosyl-arginine after intravenous bolus in rats; set-up: species or system Sprague Dawley rats; settings: rat
Procedure: In vivo clearance was assessed in five large (370 g) mature (122 days old) Sprague Dawley rats. The animals were anaesthetised with sodium pentabarbitone and remained anaesthetised during the entire procedure. A large bolus of tyrosyl-arginine (82.1 2.8 μg/g rat, Mean SD) was injected intravenously into a central vein and rapid blood samples (n=11) (total volume=2.0 ml) were obtained through a central venous catheter over 20 minutes. We observed that tyrosyl-arginine was cleared rapidly by rats with an approximate half life of 30 seconds. There was a large and rapid rise in Arg concentration reaching a maximum after 2.5 min and falling to baseline levels after 20 minutes.

time over which the concentration, after its rise, fell to baseline [1] [h] | half-life ([2]; Sprague Dawley, 82.1 μg/g rat, anaesthetised rats, intravenous bolus of tyrosyl-arginine into a central vein, read-out: approximate half life (in vivo clearance) (converted)) [min] | time by which degradation was complete ([1]; human whole blood, 37°C) [h] | half-life at 547 nmol/ml ([1]; human, blood) [min] | concentration in whole blood (mean) ([1]; time 0 min, human whole blood incubated with tyrosyl-arginine (initially 547 nmol/ml) at 37°C) [µM] | concentration in whole blood (mean) ([1]; time 0.5 min, human whole blood incubated with tyrosyl-arginine at 37°C) [µM] | concentration in whole blood (mean) ([1]; time 1.0 min, human whole blood incubated with tyrosyl-arginine at 37°C) [µM] | concentration in whole blood (mean) ([1]; time 2.0 min, human whole blood incubated with tyrosyl-arginine at 37°C) [µM] | concentration in whole blood (mean) ([1]; time 5.0 min, human whole blood incubated with tyrosyl-arginine at 37°C) [µM] | concentration in whole blood (mean) ([1]; time 10.0 min, human whole blood incubated with tyrosyl-arginine at 37°C) [µM] | concentration in whole blood (mean) ([1]; time 20.0 min, human whole blood incubated with tyrosyl-arginine at 37°C) [µM] | concentration in whole blood (mean) ([1]; time 40.0 min, human whole blood incubated with tyrosyl-arginine at 37°C) [µM] | concentration in whole blood (mean) ([1]; time 60.0 min, human whole blood incubated with tyrosyl-arginine at 37°C) [µM] | concentration in whole blood (mean) ([1]; time 120.0 min, human whole blood incubated with tyrosyl-arginine at 37°C) [µM] | time of fall to baseline levels ([2]; iv) [min] | time to maximum concentration ([2]; iv) [min] | Structure (SMILES)
2 | – | – | – | – | – | – | – | – | – | – | – | – | – | – | – | N[C@@H](Cc1ccc(O)cc1)C(=O)O [Tyr, tyrosine]
– | ~0.5 | ≤ 2 | 4.2 | 547 | 389.85 | 338.65 | 278.94 | 245.52 | 220.90 | 149.77 | 547.0 | 55.57 | 0 | – | – | N=C(N)NCCC[C@H](NC(=O)[C@@H](N)Cc1ccc(O)cc1)C(=O)O [Tyr--Arg, tyrosyl-arginine]
2 | – | – | – | – | – | – | – | – | – | – | – | – | – | 20 | 2.5 | N=C(N)NCCC[C@H](N)C(=O)O [Arg, arginine]
